29 compounds from patent US12018021B2 (UCB Biopharma SRL, priority 2018, dated 2024) can be followed below.

This test concerns the target IgE-Tb / FcεRIα-Y131A-AF488 (Homo sapiens, UniProt P01854). Briefly: IgE-Tb / FcεRIα-Y131A-AF488 FRET assay (protocol for examples 1 to 233). It counts as binding. The settings on record: examples 1 to 233: 5 nM IgE-Tb, 25 nM FcεRIα-Y131A-AF488, incubated 2 hours at room temperature; read-out: Y131A FRET IC50 range. The method, then:
For examples 1 to 233, the assay was conducted according to the following: Each assay reaction was conducted in a volume of 25 μl in a 384-well half-volume plate. 10 point compound serial dilutions (3-fold) were generated in DMSO at a concentration of ×50 that of the final assay concentration (FAC). Compound solutions were then prepared by IgE-Tb diluting 10-fold in assay buffer. For the assay, 5 μl of diluted compound was added to 10 μl of, followed by addition of 10 μl FcεRIα-Y131A-AF488. FRET reagents FACs were 5 nM IgE-Tb, 25 nM FcεRIα-Y131A-AF488. Usually the top FAC of compound in the assay was 10 μM. The final DMSO concentration was 2%. The minimum signal (MIN) was measured by adding 5l unlabelled FcεRIα at 1 μM (FAC=200 nM) to the FRET reagents. The maximum FRET signal (MAX) was measured in wells containing FRET reagents but no compound. The assay was incubated for 2 hours at room temperature, protected from light and evaporation, and with gentle agitation.
Measurement of FRET for each well was carried out by exciting at 330 nm and measuring emission at 495/520 nm using an Envision plate reader (Perkin Elmer). FRET ratio was calculated as follows: Emission at 520/Emission at 495×1000.
The FRET ratio was used for the data analysis.
Z′ was calculated as follows (σ=standard deviation and μ=mean): 1−((3×σMAX)+(3×σMIN))/(μMAX−μMIN)
Z′ above 0.5 was considered a good assay.
Background signal (MIN) was subtracted from all wells. Using the background subtracted values, the percent inhibition by compound in each test-well was calculated as follows: 100−Test-well FRET ratio/MAX FRET ratio×100.
Percent inhibition was plotted against compound concentration. IC50 values for each compound were determined using four parameter logistic fit model using the XLFIT5 software package.

Sequence of IgE-Tb / FcεRIα-Y131A-AF488 (P01854 1-427 limits assumed, stated change not applied): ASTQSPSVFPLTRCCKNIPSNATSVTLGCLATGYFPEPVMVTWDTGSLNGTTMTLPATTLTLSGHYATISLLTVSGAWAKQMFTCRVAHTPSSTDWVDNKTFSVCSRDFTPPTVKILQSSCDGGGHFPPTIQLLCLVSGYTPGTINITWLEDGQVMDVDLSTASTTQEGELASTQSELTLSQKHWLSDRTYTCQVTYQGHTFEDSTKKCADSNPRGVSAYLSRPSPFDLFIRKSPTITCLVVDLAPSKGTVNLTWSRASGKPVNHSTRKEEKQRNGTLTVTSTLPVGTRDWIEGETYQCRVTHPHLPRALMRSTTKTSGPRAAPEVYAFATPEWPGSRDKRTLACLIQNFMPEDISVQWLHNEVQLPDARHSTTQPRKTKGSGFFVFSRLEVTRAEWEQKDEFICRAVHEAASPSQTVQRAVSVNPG

Consider `CS(=O)(=O)N1CCc2sc(NC(=O)C3CC3)c(C(=O)NCC3CC3)c2C1` [Example 4, 2-(Cyclopropanecarbonylamino)-N-(cyclopropylmethyl)-5-methylsulfonyl-6,7-dihydro-4H-thieno[3,2-c]pyridine-3-carboxamide], for which the IC50 was in the range of 10 to 50 µM. The same measure for `CC(=O)N1CCc2sc(NC(=O)C3CC3)c(C(=O)NCC3CC3)c2C1` [Example 5, 5-Acetyl-2-(cyclopropanecarbonylamino)-N-(cyclopropylmethyl)-6,7-dihydro-4H-thieno[3,2-c]pyridine-3-carboxamide]: 10 to 50 µM; for `CS(=O)(=O)N1CCCc2c1sc(NC(=O)C1CC1)c2C(=O)NCC1CC1` [Example 6, 2-(Cyclopropanecarbonylamino)-N-(cyclopropylmethyl)-7-methylsulfonyl-5,6-dihydro-4H-thieno[2,3-b]pyridine-3-carboxamide]: 1 to 10 µM. As for `CC(=O)N1CCCc2c1sc(NC(=O)C1CC1)c2C(=O)NCC1CC1` [Example 7, 7-Acetyl-2-(cyclopropanecarbonylamino)-N-(cyclopropylmethyl)-5,6-dihydro-4H-thieno[2,3-b]pyridine-3-carboxamide], the figure is 10 to 50 µM. The same measure for `COCC(=O)N1CCc2sc(NC(=O)C3CC3)c(C(=O)NCC3CC3)c2C1` [Example 8, 2-(Cyclopropanecarbonylamino)-N-(cyclopropylmethyl)-5-(2-methoxyacetyl)-6,7-dihydro-4H-thieno[3,2-c]pyridine-3-carboxamide]: 10 to 50 µM; for `O=C(NCC1CC1)c1c(NC(=O)C2CC2)sc2c1CN(C(=O)Cc1ccccc1)CC2` [Example 9, 2-(Cyclopropanecarbonylamino)-N-(cyclopropylmethyl)-5-(2-phenylacetyl)-6,7-dihydro-4H-thieno[3,2-c]pyridine-3-carboxamide]: 10 to 50 µM. Consider `CC(C)(C)OC(=O)NCCN1CCc2sc(NC(=O)C3CC3)c(C(=O)NCC3CC3)c2C1` [Example 10, Tert-butyl N-[2-[2-(cyclopropanecarbonylamino)-3-(cyclopropylmethylcarbamoyl)-6,7-dihydro-4H-thieno[3,2-c]pyridin-5-yl]ethyl]carbamate], for which the IC50 was 10 to 50 µM.

Consider `O=C(NCC1CC1)c1c(NC(=O)C2CC2)sc2c1CN(CCc1ccccc1)CC2` [Example 11, 2-(Cyclopropanecarbonylamino)-N-(cyclopropylmethyl)-5-(2-phenylethyl)-6,7-dihydro-4H-thieno[3,2-c]pyridine-3-carboxamide], for which the half-inhibitory concentration (IC50) was 10 to 50 µM. Take `COC(=O)CN1CCc2sc(NC(=O)C3CC3)c(C(=O)NCC3CC3)c2C1` [Example 12, Methyl 2-[2-(cyclopropanecarbonylamino)-3-(cyclopropylmethylcarbamoyl)-6,7-dihydro-4H-thieno[3,2-c]pyridin-5-yl]acetate]: the IC50 is 10 to 50 µM. In the case of `O=C(Nc1sc2c(c1S(=O)(=O)NCC1CC1)CCCC2)C1CC1` [Example 15, N-[3-(Cyclopropylmethylsulfamoyl)-4,5,6,7-tetrahydrobenzothiophen-2-yl]cyclopropanecarboxamide], the 50% inhibitory concentration (IC50) was less than 1 µM.

For the compound `CCCNS(=O)(=O)c1c(NC(=O)C2CC2)sc2c1CCCC2` [Example 16, N-[3-(Propylsulfamoyl)-4,5,6,7-tetrahydrobenzothiophen-2-yl]cyclopropanecarboxamide], the IC50 is less than 1 µM. The same measure for `CC(C)CNS(=O)(=O)c1c(NC(=O)C2CC2)sc2c1CCCC2` [Example 17, N-[3-(Isobutylsulfamoyl)-4,5,6,7-tetrahydrobenzothiophen-2-yl]cyclopropanecarboxamide]: less than 1 µM; for `CC(C)(O)CNS(=O)(=O)c1c(NC(=O)C2CC2)sc2c1CCCC2` [Example 18, N-[3-[(2-Hydroxy-2-methyl-propyl)sulfamoyl]-4,5,6,7-tetrahydrobenzothiophen-2-yl]cyclopropanecarboxamide]: 1 to 10 µM. As for `CC(O)CNS(=O)(=O)c1c(NC(=O)C2CC2)sc2c1CCCC2` (centres unmarked) [Example 19, N-[3-(2-Hydroxypropylsulfamoyl)-4,5,6,7-tetrahydrobenzothiophen-2-yl]cyclopropanecarboxamide], the figure is less than 1 µM; as for `O=C(Nc1sc2c(c1S(=O)(=O)N1CCCC1)CCCC2)C1CC1` [Example 20, N-(3-Pyrrolidin-1-ylsulfonyl-4,5,6,7-tetrahydrobenzothiophen-2-yl)cyclopropanecarboxamide], 1 to 10 µM; as for `O=C(Nc1sc2c(c1S(=O)(=O)NC1CC(F)C1)CCCC2)C1CC1` (centres unmarked) [Example 21, N-[3-[(3-Fluorocyclobutyl)sulfamoyl]-4,5,6,7-tetrahydrobenzothiophen-2-yl]cyclopropanecarboxamide], less than 1 µM. Regarding `CCCCS(=O)(=O)c1c(NC(=O)C2CC2)sc2c1CCCC2` [Example 22, N-(3-Butylsulfonyl-4,5,6,7-tetrahydrobenzothiophen-2-yl)cyclopropanecarboxamide], the concentration for half-maximal inhibition (IC50) is 1 to 10 µM. As for `CC(C)CNS(=O)(=O)c1c(NC(=O)C2CC2)sc2c1CC(Nc1ncccn1)CC2` (centres unmarked) [Example 23, N-[3-(Isobutylsulfamoyl)-5-(pyrimidin-2-ylamino)-4,5,6,7-tetrahydrobenzothiophen-2-yl]cyclopropanecarboxamide], the figure is less than 1 µM; as for `CC(C)CNS(=O)(=O)c1c(NC(=O)C2CC2)sc2c1CC(NS(C)(=O)=O)CC2` (centres unmarked) [Example 24, N-[3-(Isobutylsulfamoyl)-5-(methanesulfonamido)-4,5,6,7-tetrahydrobenzothiophen-2-yl]cyclopropanecarboxamide], less than 1 µM; as for `CCCNS(=O)(=O)c1c(NC(=O)C2CC2)sc2c1CC(NC(=S)Nc1ccc(OC)cc1)CC2` (centres unmarked) [Example 25, N-[5-[(4-Methoxyphenyl)carbamothioylamino]-3-(propylsulfamoyl)-4,5,6,7-tetrahydrobenzothiophen-2-yl]cyclopropanecarboxamide], less than 1 µM. The same measure for `CCCNS(=O)(=O)c1c(NC(=O)C2CC2)sc2c1CC(NC(=O)Nc1ccc(OC)cc1)CC2` (centres unmarked) [Example 26, N-[5-[(4-Methoxyphenyl)carbamoylamino]-3-(propylsulfamoyl)-4,5,6,7-tetrahydrobenzothiophen-2-yl]cyclopropanecarboxamide]: less than 1 µM; for `CCNC(=O)C1CCCc2c1sc(NC(=O)C1CC1)c2S(=O)(=O)NCC(C)C` (centres unmarked) [Example 27, 2-(Cyclopropanecarbonylamino)-N-ethyl-3-(isobutylsulfamoyl)-4,5,6,7-tetrahydrobenzothiophene-7-carboxamide]: 1 to 10 µM; for `CCNC(=O)C1CCc2sc(NC(=O)C3CC3)c(S(=O)(=O)NCC(C)C)c2C1` (centres unmarked) [Example 28, 2-(Cyclopropanecarbonylamino)-N-ethyl-3-(isobutylsulfamoyl)-4,5,6,7-tetrahydrobenzothiophene-5-carboxamide]: less than 1 µM. As for `CCCC[S+]([O-])c1c(NC(=O)C2CC2)sc2c1CCCC2` (centres unmarked) [Example 29, N-(3-Butylsulfinyl-4,5,6,7-tetrahydrobenzothiophen-2-yl)cyclopropanecarboxamide], the figure is 1 to 10 µM; as for `Cc1ccc(NC(=NC#N)NC2CCc3sc(NC(=O)C4CC4)c(S(=O)(=O)NCC4CC4)c3C2)cc1` (centres unmarked) [Example 30, N-[5-[[N′-Cyano-N-(p-tolyl)carbamimidoyl]amino]-3-(cyclopropylmethylsulfamoyl)-4,5,6,7-tetrahydrobenzothiophen-2-yl]cyclopropanecarboxamide], less than 1 µM; as for `CCNC(=NC#N)NC1CCc2sc(NC(=O)C3CC3)c(S(=O)(=O)NCC3CC3)c2C1` (centres unmarked) [Example 31, N-[5-[[N′-Cyano-N-ethyl-carbamimidoyl]amino]-3-(cyclopropylmethylsulfamoyl)-4,5,6,7-tetrahydrobenzothiophen-2-yl]cyclopropanecarboxamide], less than 1 µM.

In the case of `O=C1NCc2cc(NC(=O)C3CCc4sc(NC(=O)C5CC5)c(S(=O)(=O)NCC5CC5)c4C3)ccc21` (centres unmarked) [Example 32, 2-(Cyclopropanecarbonylamino)-3-(cyclopropylmethylsulfamoyl)-N-(1-oxoisoindolin-5-yl)-4,5,6,7-tetrahydrobenzothiophene-5-carboxamide], the 50% inhibitory concentration (IC50) was less than 1 µM. The same measure for `NS(=O)(=O)c1cccc(NC(=O)C2CCc3sc(NC(=O)C4CC4)c(S(=O)(=O)NCC4CC4)c3C2)c1` (centres unmarked) [Example 33, 2-(Cyclopropanecarbonylamino)-3-(cyclopropylmethylsulfamoyl)-N-(3-sulfamoylphenyl)-4,5,6,7-tetrahydrobenzothiophene-5-carboxamide]: less than 1 µM. The same measure for `CS(=O)(=O)c1cccc(NC(=O)C2CCc3sc(NC(=O)C4CC4)c(S(=O)(=O)NCC4CC4)c3C2)c1` (centres unmarked) [Example 34, 2-(Cyclopropanecarbonylamino)-3-(cyclopropylmethylsulfamoyl)-N-(3-methylsulfonylphenyl)-4,5,6,7-tetrahydrobenzothiophene-5-carboxamide]: less than 1 µM.

In general, IC50 refers to the point on the concentration scale where inhibition reaches its midpoint.
